{"source": "patent US20240082196A1", "about": "“COMBINED USE OF UBENIMEX AND IMMUNE CHECKPOINT INHIBITOR” (NIPPON KAYAKU KABUSHIKI KAISHA, priority 2021, published 2024)", "key": {"[1]": {"test_system": "mouse melanoma cells B16-F0", "assay": "antitumor effect in B16-F0 subcutaneous transplantation model", "assay_type": "in vivo", "settings": "15 days after transplantation", "method": "The antitumor effect of the combined administration of ubenimex and the anti-mouse PD-1 antibody was evaluated with a model in which the mouse melanoma cells B16-F0 were subcutaneously transplanted. Fluctuation in cytokines and immune system markers was confirmed at the same time.\nFirst, 2×10^5 B16-F0 were subcutaneously transplanted to female C57BL/6N mice (Charles River Laboratories Japan, Inc.) to produce a subcutaneous transplantation model.\nUbenimex was orally administered to subcutaneous transplantation model B16-F0 mice once a day, 14 times in total, in a dosage of 5 or 50 mg/kg from the day following the transplantation to 14 days after transplantation. Furthermore, an anti-mouse PD-1 antibody was intraperitoneally administered in a dosage of 200 μg/body 4, 7, 11, and 14 days after the transplantation. […]\nThe major axis and the minor axis of the tumors were measured with a digital micrometer caliper (Mitutoyo Corporation), and the tumor volumes (mm 3) were calculated by the expression “major axis×minor axis^2/2”. The relative tumor volume (T/C) of each treated group to the control group was calculated by the expression “average tumor volume of the test substance-treated group/average tumor volume of control group×100” using the tumor volume value 15 days after the transplantation. […]"}, "[2]": {"test_system": "Tregs", "assay": "immunophenotyping of lymphocytes in peripheral blood by flow cytometry, B16-F0 model", "assay_type": "in vivo, mouse", "settings": "ubenimex alone", "method": "The blood collected by the autopsies after the confirmation of the antitumor effects was analyzed for lymphocytes in peripheral blood by flow cytometry.\nThe peripheral blood was subjected to hemolysis treatment with a Lysing Buffer to prepare peripheral blood mononuclear cells (PBMCs), the Fc receptors were then blocked with the anti-mouse CD16/32 antibody, and the cell surface markers CD45, CD3, CD4, CD8, and CD25 were stained. The PBMCs were fixed and permeabilized, and the nuclear factor FOXP3 was stained, and measurement was performed with the flow cytometer LSRII (Becton, Dickinson and Company).\nTregs identified using CD45+, CD3+, CD4+, CD25+, and FOXP3+ were used as indices for evaluation. The existence rate of Tregs in CD45-positive cells was calculated, and the number of Tregs per 1 μL of the peripheral blood was calculated from the value of the total white blood cell count."}, "[3]": {"assay": "mouse blood concentration transition, single oral administration", "assay_type": "in vivo", "settings": "for AUC(0-inf) / Cmax / MRT inf / Tmax: fasted female C57BL/6N mice, plasma", "method": "First, 9 nine-week-old fasted female C57BL/6N mice (Charles River Laboratories Japan, Inc.) in each group were subjected to the single oral administration of 5 mg/kg or 50 mg/kg of ubenimex. Blood collecting time points were 9 time points that were time points 5, 10, and 30 minutes, 1, 3, 6, 8, 12, and 24 hours after the administration. Then, 0.1 mL of blood was collected from the jugular vein under isoflurane anesthesia from 5 minutes to 6 hours after the administration, and the whole blood was collected from the vena cava under isoflurane anesthesia 8 hours or more after the administration. To secure n=3 at each time point, the blood collection was sparse blood collection in which blood was collected from one individual at 3 time points, and three animals were replaced as one set. Plasma was prepared from the obtained blood, and the plasma ubenimex concentration was measured with a liquid chromatography mass spectrometer (LC/MS/MS)."}, "[4]": {"test_system": "mouse colon adenocarcinoma cells MC38", "assay": "antitumor effect in MC38 subcutaneous transplantation model", "assay_type": "in vivo", "settings": "25 days after transplantation", "method": "The antitumor effect of the combined administration of ubenimex and the anti-mouse PD-1 antibody was evaluated with a subcutaneous transplantation model of the mouse colon adenocarcinoma cells MC38.\nThen, 1×10^5 MC38 cells were subcutaneously transplanted into female C57BL/6N mice (Charles River Laboratories Japan, Inc.) to produce the subcutaneous transplantation model. Ubenimex was orally administered to each subcutaneous transplantation model mouse of MC38 in a dosage of 0.5 or 5 mg/kg once a day, 24 times in total, from the day following the transplantation to 24 days after the transplantation. Furthermore, the anti-mouse PD-1 antibody was intraperitoneally administered in a dosage of 50 μg/body 7, 11, 14, 18, 21, and 24 days after the transplantation. […]\nThe major axis and the minor axis of the tumors were measured with a digital micrometer caliper (Mitutoyo Corporation), and the tumor volumes (mm 3) were calculated by the expression “major axis×minor axis^2/2”. The relative tumor volume (T/C) of each treated group to the control group was calculated by the expression “average tumor volume of the test substance-treated group/average tumor volume of control group×100” using the tumor volume value 25 days after the transplantation. […]"}, "[5]": {"settings": "ubenimex 5 mg/kg oral once daily"}}}
{"smiles": "CC(C)C[C@H](NC(=O)[C@@H](O)[C@H](N)Cc1ccccc1)C(=O)O", "note": "[ubenimex, (2S)-2-[(2S,3R)-3-amino-2-hydroxy-4-phenylbutanoylamino]-4-methylpentanoic acid]", "values": [{"measurement": "relative average tumor volume (T/C) to the control group", "setting": "[1]; [5]", "result": "did not exhibit tumor growth inhibition effect"}, {"measurement": "relative average tumor volume (T/C) to the control group", "setting": "[1]; ubenimex 50 mg/kg oral once daily", "result": "did not exhibit tumor growth inhibition effect"}, {"measurement": "numbers of Tregs in the peripheral blood", "setting": "[2]", "result": "no change"}, {"measurement": "dosage proportionality", "setting": "[3]; dosage of 5 to 50 mg/kg in the mouse", "result": "dosage proportionality was generally obtained"}, {"measurement": "AUC(0-inf)", "setting": "[3]; mouse, 5 mg/kg single oral", "result": 3240, "unit": "ng·h/mL"}, {"measurement": "Cmax", "setting": "[3]; mouse, 5 mg/kg single oral", "result": 4600, "unit": "ng/mL"}, {"measurement": "MRT inf", "setting": "[3]; mouse, 5 mg/kg single oral", "result": 52.3, "unit": "min"}, {"measurement": "Tmax", "setting": "[3]; mouse, 5 mg/kg single oral", "result": 4.98, "unit": "min"}, {"measurement": "AUC(0-inf)", "setting": "[3]; mouse, 50 mg/kg single oral", "result": 47700, "unit": "ng·h/mL"}, {"measurement": "Cmax", "setting": "[3]; mouse, 50 mg/kg single oral", "result": 44000, "unit": "ng/mL"}, {"measurement": "MRT inf", "setting": "[3]; mouse, 50 mg/kg single oral", "result": 55.1, "unit": "min"}, {"measurement": "Tmax", "setting": "[3]; mouse, 50 mg/kg single oral", "result": 10.2, "unit": "min"}, {"measurement": "AUCinf, ratio of 50 mg/5 mg", "setting": "[3]; single oral, mouse", "result": 14.7, "unit": "times"}, {"measurement": "Cmax, ratio of 50 mg/5 mg", "setting": "[3]; single oral, mouse", "result": 9.57, "unit": "times"}, {"measurement": "MRTinf, ratio of 50 mg/5 mg", "setting": "[3]; single oral, mouse", "result": 1.05, "unit": "times"}, {"measurement": "relative average tumor volume (T/C) to the control group", "setting": "[4]; ubenimex 0.5 mg/kg oral once daily", "result": 62, "unit": "%"}, {"measurement": "relative average tumor volume (T/C) to the control group", "setting": "[4]; [5]", "result": 51, "unit": "%"}]}
